Like-named read-outs stand apart in the source and are kept apart here. Some results are limits rather than exact numbers.

The text below walks through data of patent US10828301B2, “2,4-pyrimidinediamine compounds and their uses” (Rigel Pharmaceuticals, Inc, priority 2002, dated 2020).

Format in all cases: cell-based
In assay [1] the test system is ionophore-induced degranulation of mast and/or basophil cells. In words: Ionophore (ionomycin or A23187)-induced degranulation counter screen. The settings on record: high density BMMC, ionomycin activation, hexosaminidase release, read-out: BMMC Ionomycin Hexos. IC50. The text has this: In addition to the FcεRI or FcγRI degranulation pathways discussed above, degranulation of mast and/or basophil cells can be induced by other agents. For example, ionomycin, a calcium ionophore that bypasses the early FcεRI or FcγRI signal transduction machinery of the cell, directly induces a calcium flux that triggers degranulation. Referring again to FIG. 2, activated PLCγ initiates pathways that lead to, among other things, calcium ion mobilization and subsequent degranulation. As illustrated, this Ca^2+ mobilization is triggered late in the FcεRI signal transduction pathway. […] Other ionophores that induce degranulation in this manner include A23187. The ability of granulation-inducing ionophores such as ionomycin to bypass the early stages of the FcεRI and/or FcγRI signaling cascades may be used as a counter screen to identify active compounds of the invention that specifically exert their degranulation-inhibitory activity by blocking or inhibiting the early FcεRI or FcγRI signaling cascades, as discussed above.
Assays suitable for determining the IC50 of ionophore-induced degranulation include any of the previously-described degranulation assays, with the modification that the cells are stimulated or activated with a degranulation-inducing calcium ionophore such as ionomycin or A23187 (A.G. Scientific, San Diego, Calif.) instead of anti-IgE antibodies or an IgE-specific allergen. Specific assays for assessing the ability of a particular 2,4-pyrimidinediamine compound of the invention to inhibit ionophore-induced degranulation are provided in the Examples section.

Assay [2] relates to cultured human mast cells (CHMC). In words: CHMC low cell density IgE activation: tryptase and LTC4 assays. The conditions noted are these: Homo sapiens, Mast cell, Low Density CHMC, anti-IgE activation. The method, boiled down:
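Cultured human mast cells at low density (1000-1500 per well) rested 1 h at 37° C, then stimulated with anti-IgE for 30 min at 37° C. Supernatant tryptase measured with fluorogenic substrate (30 min, room temperature); LTC4 quantified by ELISA on diluted supernatant.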

Assay [3] deals with bone marrow derived mast cells (BMMC). In words: BMMC high cell density IgE activation: degranulation (hexosiminidase, histamine), leukotriene (LTC4) and cytokine (TNFalpha, IL-6) assays. The settings on record: Mus musculus, anti-IgE activation. Here is the method:
After sensitizing, cells are counted, pelleted (1000 rpm, 5-10 minutes), and resuspended at 1-3×10^6 cells/ml in MT buffer. Add 100 ul of cell suspension to each well and 100 ul of compound dilutions. The final vehicle concentration is 0.5% DMSO. Incubate at 37° C. (5% CO2) for 1 hour. After 1 hour of compound treatment, stimulate cells with 6× stimulus (60 ng/ml DNP-BSA). Mix wells with the cells and allow plates to incubate at 37° C. (5% CO2) for one hour. After 1 hour incubation, pellet cells (10 minutes, 1000 RPM) and collect 200 ul per well of the supernatant, being careful not to disturb pellet, and transfer to a clean tube or 96-well plate. Place the supernatant plate on ice. During the 4-5 hour step (see next) perform the hexosiminidase assay. Resuspend cell pellet in 240 ul WEI-conditioned media containing 0.5% DMSO and corresponding concentration of compound. Incubate BMMC cells for 4-5 hours at 37° C. (5% CO2). After incubation, pellet cells (1000 RPM, 10 minutes) and collect 225 ul per well and place in −80° C. until ready to perform ELISAS. ELISAS are performed on appropriately diluted samples (determined empirically for each donor cell population so that the sample measurement falls within the standard curve) following the supplier's instructions.
Add 50 uL of BMMC cell supernatant (see above) to the hexoseaminidase substrate, place at 37° C. for 30 minutes and read the plate at 5, 10, 15, and 30 minutes on a spectrophotometer.

The subject of assay [4] is cultured human mast cells (CHMC). In words: CHMC low cell density ionomycin activation: tryptase assay. The settings on record: Homo sapiens, Mast cell, Low Density CHMC, ionomycin activation, tryptase readout; read-out: CHMC Ionomycin Tryptase.
The mark [5] stands for this setting: hexosaminidase readout, read-out: CHMC anti-IgE Hexos.
Where [6] appears, read: hexosaminidase release, read-out: BMMC anti-IgE hexos IC50.
The mark [7] stands for this setting: tryptase readout, read-out: CHMC anti-IgE Tryptase.
Setting [8] is: IL-6 release, read-out: BMMC anti-IgE IL-6 IC50.
Where [9] appears, read: LTC4 release, read-out: BMMC anti-IgE LTC4 IC50.
Where [10] appears, read: TNF-alpha release, read-out: BMMC anti-IgE TNF-alpha IC50.
Setting [11] is: histamine release, read-out: BMMC anti-IgE histamine IC50.

As to `CCOc1cccc(Nc2ncc(F)c(Nc3cccc(OCC)c3)n2)c1` [Compound R926064, N2,N4-Bis(3-ethoxyphenyl)-5-fluoro-2,4-pyrimidinediamine], the values for the IC50 in assay [1] (Mus musculus), in assay [2] (setting [5]) and in assay [3] (setting [6]) were 7.3 µM, 6.2 µM and 5.9 µM, respectively.
The matching figures for `Fc1ccc(Nc2ncc(F)c(Nc3ccc4c(c3)OCCO4)n2)cc1Cl` [Compound R926218, N2-(3-Chloro-4-fluorophenyl)-N4-(3,4-ethylenedioxyphenyl)-5-fluoro-2,4-pyrimidinediamine]: above 10 µM, above 10 µM and above 10 µM.
The matching figures for `CCOc1ccc(Nc2ccnc(Nc3ccc(OCC)cc3)n2)cc1` [Compound R926069, N2,N4-Bis(4-ethoxyphenyl)-2,4-pyrimidinediamine]: 4.4 µM, 9.1 µM and 4.5 µM.
For `Fc1ccc(Nc2ncc(F)c(Nc3ccc(F)cc3)n2)cc1` [Compound R926224, N2,N4-Bis(4-fluorophenyl)-5-fluoro-2,4-pyrimidinediamine], the IC50 in assay [1] (Mus musculus), in assay [2] (setting [5]) and in assay [3] (setting [6]) was above 10 µM each time.
Turning to `CCOc1ccc(Nc2ncc(C)c(Nc3ccc(OCC)cc3)n2)cc1` [Compound R926068, N2,N4-Bis(4-ethoxyphenyl)-5-methyl-2,4-pyrimidinediamine], the IC50 is 8.2 µM in assay [1] (Mus musculus), above 10 µM in assay [2] (setting [5]) and 7.4 µM in assay [3] (setting [6]).
`COc1cccc(Nc2ncc(F)c(Nc3cccc(OC)c3)n2)c1` [Compound R926065, N2,N4-Bis(3-methoxyphenyl)-5-fluoro-2,4-pyrimidinediamine]: the results for the IC50 in assay [1] (Mus musculus), in assay [2] (setting [5]) and in assay [3] (setting [6]) were above 10 µM, 3.5 µM and above 10 µM, respectively.
On to `Fc1ccc(Nc2ncc(F)c(Nc3ccc4c(c3)OCCO4)n2)cc1` [Compound R926220, N4-(3,4-Ethylenedioxyphenyl)-N2-(4-fluorophenyl)-5-fluoro-2,4-pyrimidinediamine], for which the IC50 in assay [1] (Mus musculus), in assay [2] (setting [5]) and in assay [3] (setting [6]) was above 10 µM throughout.
As for `Cc1ccc(Nc2ncc(F)c(Nc3ccc(C)cc3)n2)cc1` [Compound R926225, N2,N4-Bis(4-methylphenyl)-5-fluoro-2,4-pyrimidinediamine], the IC50 in assay [1] (Mus musculus), in assay [2] (setting [5]) and in assay [3] (setting [6]) was above 10 µM each time.
`CC(C)Oc1ccc(Nc2nc(Nc3ccc(OCCO)cc3)ncc2F)cc1` [Compound R935160, 5-Fluoro-N2-[4-(2-hydroxyethoxy)phenyl]-N4-(4-isopropoxyphenyl)-2,4-pyrimidinediamine]: the IC50 in assay [2] (setting [7]) was 0.202 µM; in assay [3] (setting [8]) it was below 0.22 µM; in assay [3] (setting [9]), 0.876 µM; in assay [3] (setting [10]), 0.484 µM; in assay [3] (setting [6]), below 0.22 µM; in assay [3] (setting [11]), 0.317 µM. In assay [4], the IC50 is above 10 µM.
In the case of `Fc1cccc(Nc2ncc(F)c(Nc3ccc4c(c3)OCCO4)n2)c1` [Compound R926221, N4-(3,4-Ethylenedioxyphenyl)-N2-(3-fluorophenyl)-5-fluoro-2,4-pyrimidinediamine], the IC50 in assay [1] (Mus musculus) was above 10 µM; in assay [2] (setting [5]), 8.5 µM; in assay [3] (setting [6]), 9.9 µM.
As to `O=C(NCCO)c1cc2cc(Nc3ncc(F)c(Nc4ccc5c(c4)OCCO5)n3)ccc2o1` [Compound R926498, N4-(3,4-Ethylenedioxyphenyl)-5-fluoro-N2-[2-(N-2-hydroxyethylamino)carbonylbenzofuran-5-yl]-2,4-pyrimidinediamine], the IC50 in assay [2] (setting [7]) is 0.209 µM; in assay [3] (setting [8]), below 0.22 µM; in assay [3] (setting [9]), 0.995 µM; in assay [3] (setting [10]) it was 0.614 µM; in assay [3] (setting [6]), below 0.22 µM; in assay [3] (setting [11]), 0.515 µM. Moreover, the IC50 in assay [4] was above 10 µM.
As for `Fc1cnc(Nc2ccc(N3CCOCC3)cc2)nc1Nc1ccc(N2CCOCC2)cc1` [Compound R926114, N2,N4-Bis[4-(N-morpholino)phenyl]-5-fluoro-2,4-pyrimidinediamine], in assay [1], the IC50 was above 10 µM.
